According to ChEMBL document CHEMBL1201862, “PubChem BioAssay data set” (2004):
The source made the active and inactive calls.

How the values were obtained:
Vero = experiment: cells; type: functional; details: Chlorocebus sabaeus
[1] = target: Voltage-gated N-type calcium channel alpha-1B subunit/Amyloid beta A4 precursor protein-binding family A member 1 (Homo sapiens, UniProt Q00975+Q02410); type: protein assay
Paired box protein Pax-8 = Paired box protein Pax-8 (Homo sapiens, UniProt Q06710); experiment: inhibitors of PAX8-driven TPO luciferase reporter, dose response, RMG-I cells, cherry-pick (AID 687027); type: functional, cell-based;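 also: luciferase reporter driven by Pax8 target thyroperoxidase promoter measured by SteadyGlo luminescence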
[2] = inhibitors of firefly luciferase expression or activity, dose response, H4 neuroglioma cells, luminescence (AID 1990); type: functional, cell-based
Fatty acid synthase = Fatty acid synthase (Homo sapiens, UniProt P49327); experiment: FAS thioesterase domain inhibitors, dose response, biochemical, endpoint fluorescence intensity, uHTS hits (AID 624327); type: functional;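 also: fluorescence from hydrolysis of an O-methyl fluorescein acyl ester substrate by the enzyme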
[3] = target: RNA-editing ligase 1, mitochondrial (Trypanosoma brucei brucei, UniProt P86926); experiment: TbREL1 ligase inhibitors, dose response, biochemical, fluorescence, Trypanosoma brucei (AID 1117295); type: functional
Procathepsin L = Procathepsin L (Homo sapiens, UniProt P07711)
Aspartyl aminopeptidase = Aspartyl aminopeptidase (Plasmodium falciparum 3D7, UniProt Q8I2J3)
[4] = target: Serine/threonine-protein kinase D2 (Homo sapiens, UniProt Q9BZL6); type: functional;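 also: measured against PRKD2 as one member of a kinome-wide kinase profiling panel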
[5] = target: Casein kinase II subunit alpha (Homo sapiens, UniProt P68400); type: functional
[6] = target: Eukaryotic elongation factor 2 kinase (Homo sapiens, UniProt O00418); type: functional
[7] = target: Tyrosine-protein kinase SYK (Homo sapiens, UniProt P43405); type: functional
[8] = target: Calcium/calmodulin-dependent protein kinase type II subunit gamma (Homo sapiens, UniProt Q13555); type: functional
[9] = target: Glycogen synthase kinase-3 alpha (Homo sapiens, UniProt P49840); type: functional;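 also: GSK3A result taken from a broad kinome-wide kinase panel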
[10] = target: Non-receptor tyrosine-protein kinase TYK2 (Homo sapiens, UniProt P29597); type: functional
[11] = target: Ribosomal protein S6 kinase beta-1 (Homo sapiens, UniProt P23443); type: functional;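 also: measured as one member of a kinome-wide profiling panel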
[12] = target: Mitogen-activated protein kinase kinase kinase kinase 2 (Homo sapiens, UniProt Q12851); type: functional;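 also: measured as one member of a kinome-wide kinase panel, with MAP4K2 as the panel entry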
[13] = target: Proto-oncogene tyrosine-protein kinase Src (Homo sapiens, UniProt P12931); type: functional;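 also: SRC entry within a kinome-wide kinase profiling panel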
Aurora kinase B = Aurora kinase B (Homo sapiens, UniProt Q96GD4); type: functional
[14] = target: Mitogen-activated protein kinase kinase kinase 20 (Homo sapiens, UniProt Q9NYL2); type: functional
[15] = target: 5'-AMP-activated protein kinase catalytic subunit alpha-1 (Homo sapiens, UniProt Q13131); type: functional
[16] = target: Mast/stem cell growth factor receptor Kit (Homo sapiens, UniProt P10721); type: functional;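 also: KIT entry within a kinase panel assay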
[17] = target: Serine/threonine-protein kinase pim-2 (Homo sapiens, UniProt Q9P1W9); type: functional;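 also: value comes from a broad kinase panel profiling study in which PIM2 was one of the panel members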
[18] = target: Serine/threonine-protein kinase 17A (Homo sapiens, UniProt Q9UEE5); type: functional
[19] = target: Tyrosine-protein kinase ABL1 (Homo sapiens, UniProt P00519); type: functional
[20] = target: Tyrosine-protein kinase ITK/TSK (Homo sapiens, UniProt Q08881); type: functional;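 also: affinity for ITK measured as one member of a broad kinase panel profiling binding across the kinome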
[21] = target: Receptor tyrosine-protein kinase erbB-2 (Homo sapiens, UniProt P04626); experiment: Navigating the Kinome. Panel member name: ERBB2; type: functional
[22] = target: Vascular endothelial growth factor receptor 2 (Homo sapiens, UniProt P35968); type: functional
[23] = target: Mitogen-activated protein kinase 8 (Homo sapiens, UniProt P45983); type: functional;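 also: value comes from one member of a kinome-wide kinase profiling panel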
Aurora kinase A = Aurora kinase A (Homo sapiens, UniProt O14965); type: functional;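 also: value from the Navigating the Kinome kinase panel profiling, panel entry STK6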
[24] = target: Glycogen synthase kinase-3 beta (Homo sapiens, UniProt P49841); type: functional;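 also: value comes from a broad kinome profiling panel, with GSK3B as the panel member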
[25] = target: T1, Heat shock factor protein 1 (Mus musculus, UniProt P38532); experiment: inhibition of MG132-induced HSE-luciferase signal, confirmation, cell-based, NIH3T3, luminescence, dose retest (AID 2382); type: functional;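 also: NIH3T3 fibroblasts with HSF1-driven luciferase reporter stressed by proteasome inhibitor MG132; luminescence from HSF1-driven luciferase expression after 8 hours of MG132 stress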
T1 sequence (P38532 whole entry): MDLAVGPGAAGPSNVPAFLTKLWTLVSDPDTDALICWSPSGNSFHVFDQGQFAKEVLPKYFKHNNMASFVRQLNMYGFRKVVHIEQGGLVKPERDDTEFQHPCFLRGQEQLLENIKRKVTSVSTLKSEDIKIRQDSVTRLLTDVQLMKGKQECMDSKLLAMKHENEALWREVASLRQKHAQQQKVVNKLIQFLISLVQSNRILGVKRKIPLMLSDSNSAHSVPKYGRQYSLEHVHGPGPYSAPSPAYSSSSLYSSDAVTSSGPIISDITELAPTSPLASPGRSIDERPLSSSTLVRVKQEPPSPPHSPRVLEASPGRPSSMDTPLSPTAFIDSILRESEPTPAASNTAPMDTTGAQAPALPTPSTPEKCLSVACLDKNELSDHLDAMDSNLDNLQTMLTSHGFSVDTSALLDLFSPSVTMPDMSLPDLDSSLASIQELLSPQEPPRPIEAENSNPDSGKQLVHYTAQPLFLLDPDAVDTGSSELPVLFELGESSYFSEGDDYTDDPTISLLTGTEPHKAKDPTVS

INS1 = experiment: beta cell apoptosis inhibitors, cytokine rescue, dose response, luminescence, retest (AID 449756); type: functional, cell-based; details: Rattus norvegicus;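 also: cell death triggered by IL-1 beta plus TNF-alpha plus IFN-gamma mixture; protective hits raise ATP signal compared with cytokine alone wells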
[26] = target: T2, Sentrin-specific protease 8 (Homo sapiens, UniProt Q96LD8); type: functional
T2 sequence (Q96LD8 whole entry): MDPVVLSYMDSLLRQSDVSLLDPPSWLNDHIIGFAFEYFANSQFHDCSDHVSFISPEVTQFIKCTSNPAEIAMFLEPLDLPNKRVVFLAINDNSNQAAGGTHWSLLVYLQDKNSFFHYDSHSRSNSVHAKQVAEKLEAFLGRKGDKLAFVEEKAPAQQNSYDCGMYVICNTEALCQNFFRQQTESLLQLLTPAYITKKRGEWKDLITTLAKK

[27] = target: T2, Sentrin-specific protease 8; type: functional; remark: listed apart in the source

Sequence of Procathepsin L (P07711 whole entry): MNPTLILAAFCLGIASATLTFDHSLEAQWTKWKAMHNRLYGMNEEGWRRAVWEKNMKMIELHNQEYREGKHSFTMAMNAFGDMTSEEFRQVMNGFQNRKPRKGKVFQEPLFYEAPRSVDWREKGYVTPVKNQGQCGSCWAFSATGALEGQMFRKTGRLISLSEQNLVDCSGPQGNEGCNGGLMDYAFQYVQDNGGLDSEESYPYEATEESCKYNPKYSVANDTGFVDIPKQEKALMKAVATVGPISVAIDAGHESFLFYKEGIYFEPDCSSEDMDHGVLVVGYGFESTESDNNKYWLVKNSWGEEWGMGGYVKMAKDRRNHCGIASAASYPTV
Sequence of Glycogen synthase kinase-3 beta (P49841 whole entry): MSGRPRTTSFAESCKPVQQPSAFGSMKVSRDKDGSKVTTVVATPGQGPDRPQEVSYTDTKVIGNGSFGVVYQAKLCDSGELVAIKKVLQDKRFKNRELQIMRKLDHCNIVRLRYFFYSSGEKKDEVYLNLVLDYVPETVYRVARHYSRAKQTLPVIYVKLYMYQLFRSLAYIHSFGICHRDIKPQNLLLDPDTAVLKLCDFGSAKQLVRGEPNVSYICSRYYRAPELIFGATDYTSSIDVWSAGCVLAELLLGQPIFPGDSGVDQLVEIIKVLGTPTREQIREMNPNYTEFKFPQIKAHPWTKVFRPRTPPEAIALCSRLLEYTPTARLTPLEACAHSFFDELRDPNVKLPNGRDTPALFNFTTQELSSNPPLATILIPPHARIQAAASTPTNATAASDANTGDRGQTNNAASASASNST
Sequence of Tyrosine-protein kinase ITK/TSK (Q08881 whole entry): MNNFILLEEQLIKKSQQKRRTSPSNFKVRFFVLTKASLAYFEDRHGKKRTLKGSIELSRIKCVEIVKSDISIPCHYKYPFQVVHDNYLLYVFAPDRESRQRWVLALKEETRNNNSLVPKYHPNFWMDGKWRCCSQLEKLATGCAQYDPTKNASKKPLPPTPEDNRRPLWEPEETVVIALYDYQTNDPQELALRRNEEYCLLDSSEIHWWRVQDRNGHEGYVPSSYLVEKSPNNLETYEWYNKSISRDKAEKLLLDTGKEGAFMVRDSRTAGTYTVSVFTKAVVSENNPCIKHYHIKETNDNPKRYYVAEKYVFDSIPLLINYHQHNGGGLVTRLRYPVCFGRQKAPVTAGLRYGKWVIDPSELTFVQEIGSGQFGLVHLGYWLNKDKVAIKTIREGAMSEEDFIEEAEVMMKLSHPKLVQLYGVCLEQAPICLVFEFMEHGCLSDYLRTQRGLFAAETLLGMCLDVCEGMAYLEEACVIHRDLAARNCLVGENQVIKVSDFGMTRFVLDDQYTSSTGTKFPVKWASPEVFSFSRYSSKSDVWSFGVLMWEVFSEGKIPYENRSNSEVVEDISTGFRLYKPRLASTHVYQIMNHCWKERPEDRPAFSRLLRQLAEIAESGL
Sequence of Calcium/calmodulin-dependent protein kinase type II subunit gamma (Q13555 whole entry): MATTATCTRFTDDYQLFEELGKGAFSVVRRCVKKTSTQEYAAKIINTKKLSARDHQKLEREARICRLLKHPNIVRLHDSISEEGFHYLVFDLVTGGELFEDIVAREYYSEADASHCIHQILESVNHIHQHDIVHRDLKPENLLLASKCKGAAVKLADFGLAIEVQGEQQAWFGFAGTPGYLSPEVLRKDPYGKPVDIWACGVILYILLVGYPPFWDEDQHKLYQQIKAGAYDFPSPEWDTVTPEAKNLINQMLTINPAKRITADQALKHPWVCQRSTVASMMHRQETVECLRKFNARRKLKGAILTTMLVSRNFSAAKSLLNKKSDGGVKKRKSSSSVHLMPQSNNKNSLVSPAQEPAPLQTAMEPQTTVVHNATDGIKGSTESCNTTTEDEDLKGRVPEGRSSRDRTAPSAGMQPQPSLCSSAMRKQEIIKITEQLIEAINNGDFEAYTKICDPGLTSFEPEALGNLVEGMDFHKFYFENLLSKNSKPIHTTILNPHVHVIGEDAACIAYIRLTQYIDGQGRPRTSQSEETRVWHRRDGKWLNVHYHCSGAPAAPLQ
Sequence of Casein kinase II subunit alpha (P68400 whole entry): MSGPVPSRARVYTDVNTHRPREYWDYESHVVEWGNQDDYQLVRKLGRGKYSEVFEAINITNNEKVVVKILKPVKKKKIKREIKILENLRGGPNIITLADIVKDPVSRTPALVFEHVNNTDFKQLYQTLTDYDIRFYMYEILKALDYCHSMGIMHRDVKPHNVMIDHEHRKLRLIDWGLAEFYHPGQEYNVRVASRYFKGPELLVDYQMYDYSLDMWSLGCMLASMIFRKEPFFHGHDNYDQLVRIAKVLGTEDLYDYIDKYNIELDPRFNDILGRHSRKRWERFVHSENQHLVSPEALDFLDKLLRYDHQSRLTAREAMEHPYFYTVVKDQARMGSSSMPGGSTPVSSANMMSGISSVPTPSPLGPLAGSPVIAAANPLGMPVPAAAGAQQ
Sequence of Proto-oncogene tyrosine-protein kinase Src (P12931 2-536 limits assumed): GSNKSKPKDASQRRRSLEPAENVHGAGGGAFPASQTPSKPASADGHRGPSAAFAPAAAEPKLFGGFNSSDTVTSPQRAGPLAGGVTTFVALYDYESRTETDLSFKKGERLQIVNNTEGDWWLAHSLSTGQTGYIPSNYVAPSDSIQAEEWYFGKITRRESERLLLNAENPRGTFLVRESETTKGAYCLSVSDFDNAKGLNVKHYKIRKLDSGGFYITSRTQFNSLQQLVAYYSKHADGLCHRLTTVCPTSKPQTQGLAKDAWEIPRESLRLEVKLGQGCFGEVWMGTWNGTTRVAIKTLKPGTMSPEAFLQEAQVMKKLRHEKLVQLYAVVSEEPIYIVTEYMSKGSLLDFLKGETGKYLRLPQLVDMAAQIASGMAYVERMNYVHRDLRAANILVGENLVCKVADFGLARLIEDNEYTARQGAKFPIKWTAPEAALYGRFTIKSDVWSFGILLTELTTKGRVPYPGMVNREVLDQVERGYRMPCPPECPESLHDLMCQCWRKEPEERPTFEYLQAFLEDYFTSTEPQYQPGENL
Sequence of Mitogen-activated protein kinase 8 (P45983 whole entry): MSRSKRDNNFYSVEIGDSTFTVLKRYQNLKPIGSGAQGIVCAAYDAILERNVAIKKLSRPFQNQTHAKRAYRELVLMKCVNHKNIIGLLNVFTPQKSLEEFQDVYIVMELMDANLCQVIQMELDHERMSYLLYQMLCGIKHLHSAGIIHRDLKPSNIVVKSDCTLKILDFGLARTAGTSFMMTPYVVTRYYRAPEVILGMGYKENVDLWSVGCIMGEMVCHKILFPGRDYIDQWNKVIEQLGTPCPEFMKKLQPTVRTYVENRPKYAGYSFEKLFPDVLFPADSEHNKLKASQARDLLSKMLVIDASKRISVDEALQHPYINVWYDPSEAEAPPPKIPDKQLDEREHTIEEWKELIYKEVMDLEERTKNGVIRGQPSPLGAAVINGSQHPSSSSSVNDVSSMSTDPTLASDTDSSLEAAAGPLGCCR
Sequence of Paired box protein Pax-8 (Q06710 whole entry): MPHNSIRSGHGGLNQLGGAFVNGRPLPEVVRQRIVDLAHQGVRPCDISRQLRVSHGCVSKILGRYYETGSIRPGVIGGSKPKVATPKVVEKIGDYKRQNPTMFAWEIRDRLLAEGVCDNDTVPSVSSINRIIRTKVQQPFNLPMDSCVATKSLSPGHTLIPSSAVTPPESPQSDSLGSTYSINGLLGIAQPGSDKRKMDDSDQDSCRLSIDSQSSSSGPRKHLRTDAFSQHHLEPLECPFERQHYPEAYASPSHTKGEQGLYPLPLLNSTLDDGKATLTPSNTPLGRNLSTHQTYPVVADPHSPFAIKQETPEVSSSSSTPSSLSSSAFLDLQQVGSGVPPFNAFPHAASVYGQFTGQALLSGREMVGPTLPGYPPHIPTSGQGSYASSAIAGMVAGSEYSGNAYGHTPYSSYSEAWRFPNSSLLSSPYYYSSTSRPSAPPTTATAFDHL
Sequence of Aurora kinase B (Q96GD4 whole entry): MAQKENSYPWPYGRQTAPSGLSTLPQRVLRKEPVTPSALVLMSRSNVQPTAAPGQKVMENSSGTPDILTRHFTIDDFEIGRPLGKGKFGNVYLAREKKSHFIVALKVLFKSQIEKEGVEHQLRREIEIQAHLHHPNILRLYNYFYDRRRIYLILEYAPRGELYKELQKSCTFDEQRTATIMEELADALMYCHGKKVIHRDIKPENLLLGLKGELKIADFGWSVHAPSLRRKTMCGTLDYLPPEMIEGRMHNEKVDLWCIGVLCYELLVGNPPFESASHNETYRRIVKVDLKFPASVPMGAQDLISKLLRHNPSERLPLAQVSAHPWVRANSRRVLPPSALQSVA
Sequence of Mitogen-activated protein kinase kinase kinase kinase 2 (Q12851 whole entry): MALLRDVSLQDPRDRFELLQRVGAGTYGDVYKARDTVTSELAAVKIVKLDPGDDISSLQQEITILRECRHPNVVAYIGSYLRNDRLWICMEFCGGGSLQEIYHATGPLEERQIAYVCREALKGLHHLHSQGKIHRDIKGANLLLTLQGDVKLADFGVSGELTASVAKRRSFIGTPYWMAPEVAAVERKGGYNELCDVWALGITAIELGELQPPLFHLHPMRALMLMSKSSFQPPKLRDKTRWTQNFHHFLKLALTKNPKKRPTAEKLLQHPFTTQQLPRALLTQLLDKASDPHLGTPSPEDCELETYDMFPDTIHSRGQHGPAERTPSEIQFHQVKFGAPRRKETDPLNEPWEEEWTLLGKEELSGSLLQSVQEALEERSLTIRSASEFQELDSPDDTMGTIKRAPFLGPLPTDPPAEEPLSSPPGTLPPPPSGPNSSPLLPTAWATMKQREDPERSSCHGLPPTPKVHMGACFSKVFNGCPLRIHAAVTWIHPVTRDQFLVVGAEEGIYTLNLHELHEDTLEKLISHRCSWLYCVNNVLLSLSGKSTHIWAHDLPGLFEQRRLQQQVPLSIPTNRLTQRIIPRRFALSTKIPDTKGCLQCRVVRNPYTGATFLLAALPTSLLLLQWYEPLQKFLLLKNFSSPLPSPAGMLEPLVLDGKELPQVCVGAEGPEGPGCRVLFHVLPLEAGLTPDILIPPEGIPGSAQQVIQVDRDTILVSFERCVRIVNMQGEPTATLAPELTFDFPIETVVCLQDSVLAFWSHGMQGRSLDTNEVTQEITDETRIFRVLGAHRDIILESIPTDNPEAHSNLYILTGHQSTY

For CC(=O)N(C1=C(Cl)C(=O)c2ccccc2C1=O)C1CCCCC1, the CC50 (Vero) was 13300 nM (active), the IC50 [1] was 3650 nM (active) and the AC50 (Paired box protein Pax-8) was 2740 nM (active). The EC50 [2] was 9510 nM (active) and the IC50 (Fatty acid synthase) was 3020 nM (active).

For Oc1ccc(-c2cn3c(n2)SCC3)cc1O, the IC50 [3] was > 96600 nM (inactive), the IC50 (Procathepsin L) was > 59600 nM (not active) and the IC50 (Aspartyl aminopeptidase) was 1550 nM (active).

For O=C1Nc2ccc3ncsc3c2C1=CNc1ccc(S(=O)(=O)Nc2ccccn2)cc1, the Ki [4] was 50.1 nM (active), the Ki [5] was 501 nM (active) and the Ki [6] was > 3980 nM (inactive). For the same compound, the Ki [7] was > 1580 nM (inactive), the Ki [8] was 200 nM (active) and the Ki [9] was 3.98 nM (active). The Ki [10] was 251 nM (active), the Ki [11] was 126 nM (active) and the Ki [12] was 7.94 nM (active). For the same compound, the Ki [13] was 158 nM (active), the Ki (Aurora kinase B) was 3.98 nM (active) and the Ki [14] was 200 nM (active). The Ki [15] was 3.98 nM (active), the Ki [16] was > 1260 nM (inactive) and the Ki [17] was 1000 nM (active). For the same compound, the Ki [18] was 3.98 nM (active), the Ki [19] was > 631 nM (inactive) and the Ki [20] was 126 nM (active). For the same compound, the Ki [21] was > 1580 nM (inactive), the Ki [22] was 25.1 nM (active) and the Ki [23] was 126 nM (active). The Ki (Aurora kinase A) was 15.8 nM (active) and the Ki [24] was 3.16 nM (active).

In the case of Cc1ccc(NC2=C/C(=N\S(=O)(=O)c3cccs3)c3ccccc3C2=O)c(C)c1, the EC50 [25] is reported as 1560 nM (active) and the AC50 (INS1) is reported as 404 nM (active).

For COc1ccc(/C=N/NC(=O)c2nn(-c3ccccc3)c(=O)c3c(N)scc23)cc1, the IC50 [26] was 415 nM (active) and the IC50 [27] was 346 nM (active).
